Results taken from ChEMBL document CHEMBL1152405, “Bis-anthracenyl isoxazolyl amides have enhanced anticancer activity” (Bioorg Med Chem Lett, 2009).

Columns and labels:
LOX IMVI = test: Growth inhibition of human LOXIMVI cells at 10 uM after 24 hrs by MTT assay relative to control; type: functional; set-up: scale not given: the % may be the effect or the level left
SK-MEL-28 = test: Growth inhibition of human SK-MEL-28 cells at 10 uM after 24 hrs by MTT assay relative to control; type: functional; set-up: scale not given: the % may be the effect or the level left
SK-MEL-2 = test: Growth inhibition of human SK-MEL-2 cells at 10 uM after 24 hrs by MTT assay relative to control; type: functional; set-up: scale not given: the % may be the effect or the level left
SR = test: Growth inhibition of human SR cells at 10 uM after 24 hrs by MTT assay relative to control; type: functional; set-up: scale not given: the % may be the effect or the level left
UACC-62 = test: Growth inhibition of human UACC62 cells at 10 uM after 24 hrs by MTT assay relative to control; type: functional; set-up: scale not given: the % may be the effect or the level left
SF-295 = test: Growth inhibition of human SF295 cells at 10 uM after 24 hrs by MTT assay relative to control; type: functional; set-up: scale not given: the % may be the effect or the level left
UACC-257 = test: Growth inhibition of human UACC257 cells at 10 uM after 24 hrs by MTT assay relative to control; type: functional; set-up: scale not given: the % may be the effect or the level left
MDA-MB-435 = test: Growth inhibition of human MDA-MB-435 cells at 10 uM after 24 hrs by MTT assay relative to control; type: functional; set-up: scale not given: the % may be the effect or the level left
HOP-92 = test: Growth inhibition of human HOP92 cells at 10 uM after 24 hrs by MTT assay relative to control; type: functional; set-up: scale not given: the % may be the effect or the level left
SW-620 = test: Growth inhibition of human SW620 cells at 10 uM after 24 hrs by MTT assay relative to control; type: functional; set-up: scale not given: the % may be the effect or the level left
SK-MEL-5 = test: Growth inhibition of human SK-MEL-5 cells at 10 uM after 24 hrs by MTT assay relative to control; type: functional; set-up: scale not given: the % may be the effect or the level left
PC-3 = test: Growth inhibition of human PC3 cells at 10 uM after 24 hrs by MTT assay relative to control; type: functional; set-up: scale not given: the % may be the effect or the level left
DU-145 = test: Growth inhibition of human DU145 cells at 10 uM after 24 hrs by MTT assay relative to control; type: functional; set-up: scale not given: the % may be the effect or the level left
K562 = test: Growth inhibition of human K562 cells at 10 uM after 24 hrs by MTT assay relative to control; type: functional; set-up: scale not given: the % may be the effect or the level left
A549 = test: Growth inhibition of human A549 cells at 10 uM after 24 hrs by MTT assay relative to control; type: functional; set-up: scale not given: the % may be the effect or the level left
EKVX = test: Growth inhibition of human EKVX cells at 10 uM after 24 hrs by MTT assay relative to control; type: functional; set-up: scale not given: the % may be the effect or the level left
ACHN = test: Growth inhibition of human ACHN cells at 10 uM after 24 hrs by MTT assay relative to control; type: functional; set-up: scale not given: the % may be the effect or the level left
HT-29 = test: Growth inhibition of human HT-29 cells at 10 uM after 24 hrs by MTT assay relative to control; type: functional; set-up: scale not given: the % may be the effect or the level left
U-251 = test: Growth inhibition of human U251 cells at 10 uM after 24 hrs by MTT assay relative to control; type: functional; set-up: scale not given: the % may be the effect or the level left
A498 = test: Growth inhibition of human A498 cells at 10 uM after 24 hrs by MTT assay relative to control; type: functional; set-up: scale not given: the % may be the effect or the level left
M14 = test: Growth inhibition of human M14 cells at 10 uM after 24 hrs by MTT assay relative to control; type: functional; set-up: scale not given: the % may be the effect or the level left
SF-539 = test: Growth inhibition of human SF539 cells at 10 uM after 24 hrs by MTT assay relative to control; type: functional; set-up: scale not given: the % may be the effect or the level left
Malme-3M = test: Growth inhibition of human MALME-3M cells at 10 uM after 24 hrs by MTT assay relative to control; type: functional; set-up: scale not given: the % may be the effect or the level left
NCI-H522 = test: Growth inhibition of human NCI-H522 cells at 10 uM after 24 hrs by MTT assay relative to control; type: functional; set-up: scale not given: the % may be the effect or the level left
HL-60(TB) = test: Growth inhibition of human HL-60(TB) cells at 10 uM after 24 hrs by MTT assay relative to control; type: functional; set-up: scale not given: the % may be the effect or the level left
SF-268 = test: Growth inhibition of human SF268 cells at 10 uM after 24 hrs by MTT assay relative to control; type: functional; set-up: scale not given: the % may be the effect or the level left
MOLT-4 = test: Growth inhibition of human MOLT4 cells at 10 uM after 24 hrs by MTT assay relative to control; type: functional; set-up: scale not given: the % may be the effect or the level left
MDA-MB-231 = test: Growth inhibition of human MDA-MB-231 cells at 10 uM after 24 hrs by MTT assay relative to control; type: functional; set-up: scale not given: the % may be the effect or the level left
NCI/ADR-RES = test: Growth inhibition of human NCI/ADR-RES cells at 10 uM after 24 hrs by MTT assay relative to control; type: functional; set-up: scale not given: the % may be the effect or the level left
OVCAR-8 = test: Growth inhibition of human OVCAR8 cells at 10 uM after 24 hrs by MTT assay relative to control; type: functional; set-up: scale not given: the % may be the effect or the level left
CAKI-1 = test: Growth inhibition of human Caki1 cells at 10 uM after 24 hrs by MTT assay relative to control; type: functional; set-up: scale not given: the % may be the effect or the level left
TK-10 = test: Growth inhibition of human TK10 cells at 10 uM after 24 hrs by MTT assay relative to control; type: functional; set-up: scale not given: the % may be the effect or the level left
MCF7 = test: Growth inhibition of human MCF7 cells at 10 uM after 24 hrs by MTT assay relative to control; type: functional; set-up: scale not given: the % may be the effect or the level left
COLO 205 = test: Growth inhibition of human COLO205 cells at 10 uM after 24 hrs by MTT assay relative to control; type: functional; set-up: scale not given: the % may be the effect or the level left
HCC 2998 = test: Growth inhibition of human HCC2998 cells at 10 uM after 24 hrs by MTT assay relative to control; type: functional; set-up: scale not given: the % may be the effect or the level left
T47D = test: Growth inhibition of human T47D cells at 10 uM after 24 hrs by MTT assay relative to control; type: functional; set-up: scale not given: the % may be the effect or the level left
SN12C = test: Growth inhibition of human SN12C cells at 10 uM after 24 hrs by MTT assay relative to control; type: functional; set-up: scale not given: the % may be the effect or the level left
NCI-H322M = test: Growth inhibition of human NCI-H322M cells at 10 uM after 24 hrs by MTT assay relative to control; type: functional; set-up: scale not given: the % may be the effect or the level left
HCT-15 = test: Growth inhibition of human HCT15 cells at 10 uM after 24 hrs by MTT assay relative to control; type: functional; set-up: scale not given: the % may be the effect or the level left
[1] = Growth inhibition of human Hs 578T cells at 10 uM after 24 hrs by MTT assay relative to control; type: functional; set-up: scale not given: the % may be the effect or the level left
HOP-62 = test: Growth inhibition of human HOP62 cells at 10 uM after 24 hrs by MTT assay relative to control; type: functional; set-up: scale not given: the % may be the effect or the level left
IGROV-1 = test: Growth inhibition of human IGROV1 cells at 10 uM after 24 hrs by MTT assay relative to control; type: functional; set-up: scale not given: the % may be the effect or the level left
786-0 = test: Growth inhibition of human 786-0 cells at 10 uM after 24 hrs by MTT assay relative to control; type: functional; set-up: scale not given: the % may be the effect or the level left
SNB-19 [2] = test: Antitumor activity against human SNB19 cells after 24 hrs; type: functional, cell-based; settings: SNB-19, 24 h
OVCAR-4 = test: Growth inhibition of human OVCAR4 cells at 10 uM after 24 hrs by MTT assay relative to control; type: functional; set-up: scale not given: the % may be the effect or the level left
KM12 = test: Growth inhibition of human KM12 cells at 10 uM after 24 hrs by MTT assay relative to control; type: functional; set-up: scale not given: the % may be the effect or the level left
UO-31 = test: Growth inhibition of human UO31 cells at 10 uM after 24 hrs by MTT assay relative to control; type: functional; set-up: scale not given: the % may be the effect or the level left
HCT-116 = test: Growth inhibition of human HCT116 cells at 10 uM after 24 hrs by MTT assay relative to control; type: functional; set-up: scale not given: the % may be the effect or the level left
OVCAR-3 = test: Growth inhibition of human OVCAR-3 cells at 10 uM after 24 hrs by MTT assay relative to control; type: functional; set-up: scale not given: the % may be the effect or the level left
SNB-19 [3] = test: Growth inhibition of human SNB19 cells at 10 uM after 24 hrs by MTT assay relative to control; type: functional; set-up: scale not given: the % may be the effect or the level left
OVCAR-5 = test: Growth inhibition of human OVCAR5 cells at 10 uM after 24 hrs by MTT assay relative to control; type: functional; set-up: scale not given: the % may be the effect or the level left
SNB-75 = test: Growth inhibition of human SNB75 cells at 10 uM after 24 hrs by MTT assay relative to control; type: functional; set-up: scale not given: the % may be the effect or the level left
MDA-MB-468 = test: Growth inhibition of human MDA-MB-468 cells at 10 uM after 24 hrs by MTT assay relative to control; type: functional; set-up: scale not given: the % may be the effect or the level left
BT-549 = test: Growth inhibition of human BT549 cells at 10 uM after 24 hrs by MTT assay relative to control; type: functional; set-up: scale not given: the % may be the effect or the level left
NCI-H23 = test: Growth inhibition of human NCI-H23 cells at 10 uM after 24 hrs by MTT assay relative to control; type: functional; set-up: scale not given: the % may be the effect or the level left
SK-OV-3 = test: Growth inhibition of human SKOV3 cells at 10 uM after 24 hrs by MTT assay relative to control; type: functional; set-up: scale not given: the % may be the effect or the level left
CCRF-CEM = test: Growth inhibition of human CCRF-CEM cells at 10 uM after 24 hrs by MTT assay relative to control; type: functional; set-up: scale not given: the % may be the effect or the level left
[4] = Growth inhibition of human […] cells at 10 uM after 24 hrs by MTT assay relative to control; type: functional; set-up: scale not given: the % may be the effect or the level left
NCI-H460 = test: Growth inhibition of human NCI-H460 cells at 10 uM after 24 hrs by MTT assay relative to control; type: functional; set-up: scale not given: the % may be the effect or the level left

## Cc1onc(-c2c3ccccc3c(Cl)c3ccccc23)c1C(=O)Nc1cc(C(=O)NCCCNC(=O)c2cc(NC(=O)c3c(-c4c5ccccc5c(Cl)c5ccccc45)noc3C)cn2C)n(C)c1
LOX IMVI
  Activity: 82.59%
SK-MEL-28
  Activity: 116.55%
SK-MEL-2
  Activity: 102.24%
SR
  Activity: 87.99%
UACC-62
  Activity: 76.22%
SF-295
  Activity: 109.86%
UACC-257
  Activity: 86.93%
MDA-MB-435
  Activity: 85.56%
HOP-92
  Activity: 66.96%
SW-620
  Activity: 109.27%
SK-MEL-5
  Activity: 104%
PC-3
  Activity: 76.05%
DU-145
  Activity: 103.19%
K562
  Activity: 98.76%
A549
  Activity: 86.45%
EKVX
  Activity: 92.34%
ACHN
  Activity: 79.36%
HT-29
  Activity: 93.17%
U-251
  Activity: 80.63%
A498
  Activity: 118.2%
M14
  Activity: 80.43%
SF-539
  Activity: 91.99%
Malme-3M
  Activity: 94.79%
NCI-H522
  Activity: 76.93%
HL-60(TB)
  Activity: 160.8%
SF-268
  Activity: 72.67%
MOLT-4
  Activity: 91.53%
MDA-MB-231
  Activity: 86.9%
NCI/ADR-RES
  Activity: 103.72%
OVCAR-8
  Activity: 88.63%
CAKI-1
  Activity: 71.63%
TK-10
  Activity: 107.71%
MCF7
  Activity: 94.12%
COLO 205
  Activity: 76.5%
HCC 2998
  Activity: 130.16%
T47D
  Activity: 76.21%
SN12C
  Activity: 106.37%
NCI-H322M
  Activity: 105.3%
HCT-15
  Activity: 102.58%
[1]
  Activity: 88.87%
HOP-62
  Activity: 87.7%
IGROV-1
  Activity: 64.38%
786-0
  Activity: 81.38%
SNB-19 [2]
  IC50: > 100 µM
OVCAR-4
  Activity: 67.84%
KM12
  Activity: 96.11%
UO-31
  Activity: 60.64%
HCT-116
  Activity: 88.45%
OVCAR-3
  Activity: 88.29%
SNB-19 [3]
  Activity: 74.84%
OVCAR-5
  Activity: 95.22%
SNB-75
  Activity: 33.5%
MDA-MB-468
  Activity: 92.57%
BT-549
  Activity: 126.28%
NCI-H23
  Activity: 105.33%
SK-OV-3
  Activity: 100.87%
CCRF-CEM
  Activity: 84.24%
[4]
  Activity: 78.11%
NCI-H460
  Activity: 101.62%
